In US20210317454A1, “USE OF A TLR9 AGONIST IN METHODS FOR TREATING COVID-19” (priority 2020, published 2021):
Entries after “also recorded” stand apart in the source; their conditions may differ. Like-named read-outs stand apart in the source and are kept apart here.

Legend:
SARS-CoV2 [1] = type: cell-based
[2] = system: mediastinal lymph node immune cells; type: in vivo, BL6 mice; conditions: both pre and post-infection administration; B cells, CD4+, CD8+, granulocytes, macrophages, dendritic cells
Calu3 cells = conditions: dilutions above this excluded from analyses of conditions 1 and 2
SARS-CoV2 [3] = conditions: for toxicity in mice: intranasal 2.5 mg/kg, 8 BL6 mice
HCV = conditions: cited from earlier work
[4] = system: B16. F10 melanoma mouse models of colon carcinoma pulmonary metastasis; conditions: intranasal administration at very low doses compared with subcutaneous; cited from earlier work
[5] = system: B16. F10 melanoma pulmonary metastasis; conditions: intranasal versus subcutaneous; cited from earlier work
tumor microenvironment = conditions: cited from earlier work

## tilsotolimod: phosphorothioate oligonucleotide agonist of TLR9, sequence 5LTCG1AACG1TTCG1-X-G1CTTG1CAAG1CT-5′, X glycerol linker, G1 2′-deoxy-7-deazaguanosine (SEQ ID NO. 1) (DNA TCGAACGTTCGGCTTGCAAGCT; phosphorothioate, 7-deazaG, glycerol-linked 3'-3' dimer; (3)..(3) 2′-deoxy-7-deazaguanosine; (7)..(7) 2′-deoxy-7-deazaguanosine; (11)..(12) Linked by is a glycerol linker; (11)..(11) 2′-deoxy-7-deazaguanosine; (12)..(12) 2′-deoxy-7-deazaguanosine; (16)..(16) 2′-deoxy-7-deazaguanosine; (20)..(20) 2′-deoxy-7-deazaguanosine)
SARS-CoV2 [1]; treatment condition 1: 24 h pre-treatment, then infection for 48 hours
  antiviral activity compared with controls: None of the serial dilutions for treatment condition 1 (tilsotolimod 24 h pre-treatment) resulted in significant antiviral activity
SARS-CoV2 [1]; treatment condition 2: co-treatment with SARS-CoV2 for 48 hours, most effective dilution 0.41 μM
  reduction in TCID50: ~1 log
SARS-CoV2 [1]; treatment condition 3: supernatant of 24 h pretreated Calu3 cells added to fresh cells then infected, 1:10 serial dilution (33 μM)
  reduction in TCID50: ~3 log
[2]
  number of immune cells in the mediastinal lymph nodes: robust infiltration of immune cells; also recorded: robust changes in the number of immune cells
Calu3 cells
  concentration above which tilsotolimod induced toxicity: above 3 μM
SARS-CoV2 [3]; intranasal 2.5 mg/kg one day after virus exposure, lungs three days post-infection
  infectious SARS-CoV2 titer (TCID50/Lung): reduced infection, although not statistically significant
SARS-CoV2 [3]; post-treatment group
  toxicity in mice: No toxicity was observed
SARS-CoV2 [3]; pre-treatment group
  toxicity in mice: one mouse died, and two showed signs of reduced mobility
HCV; 0.16 mg/kg twice weekly plus ribavirin compared with pegIFN-α2a plus ribavirin
  viral load reductions: greater
HCV; HCV-infected patients, all dose groups
  rapid viral response: none of the patients achieved rapid viral response
HCV; subcutaneous 0.08, 0.16, 0.32 mg/kg once weekly and 0.16 mg/kg twice weekly, 4 weeks, with ribavirin
  tolerability: well tolerated with no discontinuations due to treatment-emergent adverse events
HCV; tilsotolimod trials involving HCV
  cytokine storm: cytokine storm was not observed
[4]
  tumor-specific CTLs in tracheobronchial lymph nodes: significant increase
[5]
  antitumor potency of intranasal relative to subcutaneous treatment: approximately 25 times
Tumor microenvironment; IFNα gene signature, MHC class I expression, patient biopsies
  Type I IFN pathway and dendritic cell maturation: Activation of the Type I IFN pathway (induction of an IFNα gene signature) followed by maturation of dendritic cells
Tumor microenvironment; biopsies after receiving tilsotolimod
  time to immune effects in the tumor microenvironment: ≤ 24 h
Tumor microenvironment; injected and non-injected tumors
  CD8+ cytotoxic T lymphocytes and tumor response: systemic increases in CD8+ cytotoxic T lymphocytes (CTLs) with subsequent reduction of both injected and non-injected tumors
